Experimental data published in PubChem BioAssay (NCI).
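Method: 48-hour compound exposure of cells in 96-well plates, five concentrations, linear interpolation of endpoints. Abbreviation: GI50, concentration required for 50% inhibition of growth. TGI: total growth inhibition.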

Experiments:
Assay in all cases: growth of human tumour cells (NCI), 48 h
MDA-MB-231 breast = tested on: MDA-MB-231 breast
HCT-116 colon = tested on: HCT-116 colon
SN12C renal = tested on: SN12C renal
SNB-75 CNS = tested on: SNB-75 CNS
MOLT-4 leukemia = tested on: MOLT-4 leukemia
HOP-92 NSCLC = tested on: HOP-92 NSCLC
T-47D breast = tested on: T-47D breast
RXF 393 renal = tested on: RXF 393 renal
CAKI-1 renal = tested on: CAKI-1 renal
UACC-62 melanoma = tested on: UACC-62 melanoma

Row | SMILES | GI50 (MDA-MB-231 breast) [µM] | TGI (MDA-MB-231 breast) [µM] | GI50 (HCT-116 colon) [nM] | TGI (HCT-116 colon) [µM] | GI50 (SN12C renal) [µM] | TGI (SN12C renal) [µM] | GI50 (SNB-75 CNS) [µM] | GI50 (MOLT-4 leukemia) [nM] | TGI (MOLT-4 leukemia) [µM] | GI50 (HOP-92 NSCLC) [nM] | GI50 (T-47D breast) [µM] | TGI (T-47D breast) [µM] | GI50 (RXF 393 renal) [µM] | TGI (RXF 393 renal) [µM] | GI50 (CAKI-1 renal) [µM] | TGI (CAKI-1 renal) [µM] | GI50 (UACC-62 melanoma) [µM] | TGI (UACC-62 melanoma) [µM] | TGI (SNB-75 CNS) [µM] | TGI (HOP-92 NSCLC) [µM]
1 | COc1cc(OC)c(/C=C/C(=O)c2c(OC)cccc2OC)c(OC)c1 | 1.07 | > 100 | 394 | > 100 | 1.1 | > 100 | 0.339 | 1170 | > 100 | 222 | 0.383 | > 100 | 0.561 | 2.17 | 0.463 | 97 | 0.362 | 3.06 | – | –
2 | CN/N=C(/CCN1CCCC1)CC(c1ccccc1)c1c(O)c2ccccc2oc1=O (stereo not drawn) | – | > 100 | – | > 100 | – | > 100 | – | – | > 100 | – | – | > 100 | – | > 100 | – | > 100 | – | > 100 | > 31.6 | 41.8
3 | COC(=O)C(=O)C(C(=O)C(=O)Nc1ccccc1C(N)=O)c1nc2ccc(Cl)cc2[nH]c1=O (stereo not drawn) | – | > 100 | – | > 100 | – | > 100 | – | – | > 100 | – | – | > 100 | – | > 100 | – | > 100 | – | > 100 | > 100 | > 100
4 | Cc1ccc(C(=NN=C(N)N)c2ccc(C)cc2)cc1 | 0.926 | 4.36 | 372 | 4.48 | 1.07 | 11.6 | 0.845 | 520 | 4.45 | 990 | 0.869 | 10.9 | 0.509 | 1.73 | 0.608 | 5.93 | 0.902 | 6.04 | 16.7 | 5.96
5 | CC(=O)OC1Oc2ccccc2-c2oc(=O)c(-c3cc4ccc(N(C)C)cc4oc3=O)cc21 (stereo not drawn) | 13 | 32.1 | 1420 | 21.7 | 19.9 | 69.6 | 9.9 | 2530 | 18.1 | 4800 | 4.34 | 30.1 | 3.54 | 15.2 | 14.9 | > 100 | 14.3 | 29.5 | 25.4 | 23.3
6 | CCS(=O)(=O)c1ccc(OC)c(Nc2ncc(-c3cccc(OC)c3)o2)c1 | 8.54 | > 25 | 8100 | > 25 | 8.3 | > 25 | 6.26 | 13500 | > 25 | 2760 | 8.18 | > 25 | 5.83 | 19.7 | 8.58 | > 25 | 9.52 | > 25 | > 18.2 | 9.17
7 | COc1ccc(C(C)c2cc3c(cc2OC)OCO3)cc1 (stereo not drawn) | – | 4.6 | – | 46.3 | – | 43.5 | – | – | > 60.6 | – | – | > 100 | – | > 100 | – | > 100 | – | > 69.2 | > 100 | 36
8 | NC(N)=NCCCn1c2c(c3ccccc3c1=O)C(=O)c1ccccc1-2 | 15.8 | 46.7 | 22300 | 45.6 | 0.229 | 0.572 | 5.69 | 2650 | 18.8 | 3200 | 22.9 | 66.6 | 7.82 | 42.4 | 20.3 | 49 | 10.9 | 25.7 | 26.4 | 47.5
9 | CCN(CC)CCCC(C)Nc1c(C)cnc2cc(Cl)c(C)cc12 (stereo not drawn) | 2.71 | 10.4 | 2560 | 13.6 | 11.2 | 43.9 | 17.8 | 845 | 8.27 | 288 | 22.9 | > 61.7 | 8.75 | 26.6 | 10 | 26.6 | 3.44 | 11.1 | 36 | 3.87
